This is an account of results in PubChem BioAssay AID844 (SRMLSC, 2007).

Broadly, the EC50 is the midpoint of the concentration-response curve.

For the test, the system named is MRP1 cells, doxorubicin viability shift, 10 uM compound. The test is described as follows: doxorubicin EC50 increase in MRP-1 cells, dose response, cell-based, doxorubicin EC50 shift (AID 844). Particulars: for EC50: measured here: doxorubicin EC50 with compound.

Activity calls are given as the source filed them. How the calls were made is not given here.

Take `C=C(C)C(=O)NC1=NN(c2ccccc2)C(=O)C1`: the fold increase in Dox EC50 was 1.04 (inactive) and the EC50 turned out to be 5.63 µM.
Turning to `O=C(NC1CCCCCC1)c1nnc(Cc2ccc(Cl)cc2)o1`, the fold increase in Dox EC50 was 0.78 (inactive) and the EC50 was determined as 4.21 µM.
Regarding `Cc1ccc(C(c2sc3ncnn3c2O)N2CC(C)CC(C)C2)cc1` (stereo unspecified), the fold increase in Dox EC50 was 0.72 (inactive) and the EC50 stood at 3.89 µM.
As to `CCCCOc1ccc(C(=O)Oc2ccc(C)nc2)cc1`, the fold increase in Dox EC50 is 0.9 (inactive) and the EC50 was 4.88 µM.
Regarding `COC(=O)C1=C(C)NC(C)=C(C(=O)OC)C1c1ccccc1OCc1c(C)no[n+]1[O-]`, the fold increase in Dox EC50 is 0.98 (inactive) and the EC50 is 5.32 µM.
For `O=C(Nc1nnc(COc2ccc(Cl)cc2)s1)C1CCCO1` (stereo unspecified), the fold increase in Dox EC50 was 1.2 (inactive) and the concentration giving a half-maximal response (EC50) was 6.46 µM.
Turning to `N#CCSc1n[nH]c2nc3c(c(=O)n12)C1(CCCC1)Cc1ccccc1-3`, the fold increase in Dox EC50 is 0.46 (inactive) and the EC50 was determined as 2.49 µM.
Consider `CN=c1scc(C)n1/N=C/c1ccc(O)c(O)c1O`, for which the fold increase in Dox EC50 is 0.92 (inactive) and the EC50 was 4.95 µM.
In the case of `CCC(Sc1nccn1C)C(=O)Nc1nnc(C)s1` (stereo unspecified), the fold increase in Dox EC50 was 1.01 (inactive) and the EC50 came to 5.43 µM.
`CCN(CC)S(=O)(=O)c1cc(NC(=O)C(=O)c2c(-c3ccccc3)cc3ccccn23)ccc1C`: the fold increase in Dox EC50 was 1.28 (inactive) and the concentration giving a half-maximal response (EC50) was found to be 6.91 µM.
As for `O=C1Cc2ccccc2C(=O)N1CCc1ccccc1`, the fold increase in Dox EC50 was 0.44 (inactive) and the concentration for a half-maximal effect (EC50) amounted to 2.37 µM.
For `CC(C)Cn1c2c(c(O)c(C(=O)Nc3nccs3)c1=O)CCCC2`, in that order: 0.83 (inactive) and 4.48 µM.
For the compound `COc1ccc(NC(=O)c2oc3ccccc3c2NC(=O)c2ccc3c(c2)OCO3)cc1`, the fold increase in Dox EC50 is 0.44 (inactive) and the EC50 is 2.4 µM.
Turning to `CCOC(=O)C1=C(C)Nc2sc(C(=O)c3ccc(OC)cc3)c(N)c2C1c1ccc(C(=O)OC)cc1` (stereo unspecified), the fold increase in Dox EC50 was 0.2 (inactive) and the EC50 came out at 1.09 µM.
Turning to `Cc1cc(C(=O)Nc2nnc(C(F)(F)F)s2)no1`, the fold increase in Dox EC50 is 1.51 and the EC50 came to 8.14 µM.
As for `N#Cc1ccc(N2C(=O)[C@@H]3C(C(=O)c4ccc5ccccc5n4)=NN[C@@H]3C2=O)cc1`, the fold increase in Dox EC50 is 1.3 (inactive) and the EC50 is 7 µM.
As to `O=C(c1ccco1)N1CCN(c2nc(C3CC3)nc3c2nnn3Cc2ccccc2Cl)CC1`, the fold increase in Dox EC50 was 0.32 (inactive) and the EC50 worked out at 1.7 µM.
For the compound `CC(O)(CS(=O)(=O)Cc1ccccc1)C(=O)Nc1ccc(C(F)(F)F)cc1` (stereo unspecified), the fold increase in Dox EC50 was 1.27 (inactive) and the EC50 was found to be 6.84 µM.
`O=C(CC1SC(=O)N(Cc2ccccc2)C1=O)Nc1nccs1` (stereo unspecified): the fold increase in Dox EC50 was 1.82 and the EC50 came to 9.84 µM.
In the case of `COc1ccc(/C=N\NC(=O)c2cc(O)c(O)c(O)c2)cc1CN1CCN(c2ccc(F)cc2)CC1`, the fold increase in Dox EC50 was 0.69 (inactive) and the EC50 turned out to be 3.74 µM.
For `CCC(Oc1ccccc1)C(=O)Nc1nnc(C(F)(F)F)s1` (stereo unspecified), in that order: 1.69 and 9.1 µM.
Take `COc1ccc(C2CC(c3ccc(Cl)cc3Cl)Nc3nc(N)nn32)cc1OC` (stereo unspecified): the fold increase in Dox EC50 was 1.05 (inactive) and the EC50 was 5.68 µM.
Regarding `Cc1nn(Cc2ccc(Cl)cc2Cl)c(C)c1NC(=O)c1ccc(COc2cc(Cl)ccc2Cl)o1`, the fold increase in Dox EC50 is 0.82 (inactive) and the EC50 amounted to 4.4 µM.
For the compound `C=CCNc1oc(COc2ccc(C)cc2)nc1C#N`, the fold increase in Dox EC50 was 0.66 (inactive) and the EC50 was found to be 3.59 µM.
Consider `Cc1ccc(N=Nc2c(N)[nH]n3c(=O)cc(-c4ccccc4)nc23)cc1`, for which the fold increase in Dox EC50 was 0.08 (inactive) and the EC50 came to 0.452 µM.
Consider `O=C(O)CCN1C(=O)CC(N2C(=O)/C(=C/c3ccc(Cl)cc3)SC2=S)C1=O` (stereo unspecified), for which the fold increase in Dox EC50 was 1.3 (inactive) and the EC50 amounted to 7.04 µM.
For `CC(C)(C)C1CCc2c(sc(NC(=O)c3cccs3)c2C(=O)N2CCCCC2)C1` (stereo unspecified), in that order: 0.96 (inactive) and 5.2 µM.
For `CCOc1ccc(-c2nc(C#N)c(NCC(C)C)o2)cc1`, in that order: 1.19 (inactive) and 6.4 µM.
As for `COc1ccc(/C=C/C(=O)Nc2c(C)nn(C)c2C)cc1COc1ccc(Br)cc1`, the fold increase in Dox EC50 is 0.84 (inactive) and the concentration for a half-maximal effect (EC50) came out at 4.51 µM.
For `O=C1CCCC(O)=C1N=Nc1ccc2c(c1)OCO2`, in that order: 1.17 (inactive) and 6.29 µM.
The corresponding values for `COc1ccc(-c2nc(-c3cccc(C)c3)no2)cc1OC` are 0.69 (inactive) and 3.73 µM.
As to `c1ccc(C(c2ccccc2)N2CCN(c3nc4ccccc4n4cnnc34)CC2)cc1`, the fold increase in Dox EC50 is 0.81 (inactive) and the EC50 came out at 4.39 µM.
For `CCCCCCC(=O)Nc1ccc(C(=O)N/N=C/c2cccnc2)cc1`, the fold increase in Dox EC50 is 0.13 (inactive) and the EC50 turned out to be 0.694 µM.
For `CC(=O)c1ccc(N2CCN(c3ccc(C(F)(F)F)cn3)CC2)cc1`, in that order: 0.56 (inactive) and 3 µM.
On to `CCC1(C)Cc2c(sc3nnn(CC(=O)Nc4ccc(Cl)cc4)c(=O)c23)CO1` (stereo unspecified), for which the fold increase in Dox EC50 was 0.2 (inactive) and the EC50 came to 1.09 µM.
In the case of `COc1ccc(N2C(S)=C(C#N)C(=O)NC2c2ccco2)cc1` (stereo unspecified), the fold increase in Dox EC50 was 0.41 (inactive) and the EC50 was found to be 2.2 µM.
For `CC(=O)c1ccc(NC(=O)CN2C(=O)/C(=C/C(C)=C/c3ccccc3)SC2=S)cc1`, the fold increase in Dox EC50 is 0.62 (inactive) and the EC50 worked out at 3.36 µM.
For `O=c1cc(CNc2ccc(Br)cc2)nc2sccn12`, in that order: 0.99 (inactive) and 5.37 µM.
As for `CCC(Sc1nc(-c2ccccc2)c(C#N)c(=O)[nH]1)C(=O)Nc1cc(C)on1` (stereo unspecified), the fold increase in Dox EC50 is 1.56 and the EC50 amounted to 8.41 µM.
On to `FC(F)(F)c1cccc(CNc2ncccc2-c2nc3cc(Cl)ccc3o2)c1`, for which the fold increase in Dox EC50 is 0.93 (inactive) and the EC50 was found to be 5.03 µM.
For `CC(C)(C)NC(NC(=O)Cc1ccccc1)C(Cl)(Cl)Cl` (stereo unspecified), in that order: 1.07 (inactive) and 5.77 µM.
On to `Cc1oc(C(=O)Nc2ccc(C(=O)O)cc2)cc1COc1ccccc1`, for which the fold increase in Dox EC50 is 0.42 (inactive) and the EC50 stood at 2.24 µM.
In the case of `Cc1noc(/C=C/N(C)C)c1S(=O)(=O)N1CCCC(C(=O)NCc2cccs2)C1` (stereo unspecified), the fold increase in Dox EC50 is 1.32 (inactive) and the concentration for a half-maximal effect (EC50) came out at 7.11 µM.
The corresponding values for `CCc1nnc(NC(=O)c2ccc(COc3ccc(C)cc3)o2)s1` are 1.33 (inactive) and 7.18 µM.
With `CCOP(=O)(OCC)C(NC(=O)Nc1ccc(Cl)cc1)C(=O)N(CC)CC` (stereo unspecified), the fold increase in Dox EC50 was 1.33 (inactive) and the EC50 stood at 7.16 µM.
Regarding `Cc1c(NC(=O)c2ccccc2NS(=O)(=O)c2ccc(Br)cc2)c(=O)n(-c2ccccc2)n1C`, the fold increase in Dox EC50 is 0.65 (inactive) and the EC50 was determined as 3.53 µM.
Regarding `Cc1ccc2nc(Nc3nc(CSc4nc5ccccc5s4)cc(=O)[nH]3)nc(C)c2c1`, the fold increase in Dox EC50 was 1.08 (inactive) and the EC50 turned out to be 5.81 µM.
The corresponding values for `O=C(Cn1c(=O)c2c(ncn2Cc2ccccc2)n(Cc2ccccc2)c1=O)N1CCc2ccccc21` are 1.07 (inactive) and 5.76 µM.
Consider `CC(SC1=NCCS1)C(=O)Nc1nnc(-c2ccc(Br)cc2)s1` (stereo unspecified), for which the fold increase in Dox EC50 is 0.97 (inactive) and the EC50 was determined as 5.24 µM.
For the compound `O=C1CSC(=S)N1N=C1CCCCCC1`, the fold increase in Dox EC50 is 0.92 (inactive) and the EC50 is 4.99 µM.
Take `COc1ccc(-c2c(C#N)c(N)nc3sc(C(=O)c4ccccc4)c(N)c23)cc1`: the fold increase in Dox EC50 was 0.34 (inactive) and the EC50 was found to be 1.86 µM.
With `CC1=C(C(=O)OC(C)C)C(c2cccc(F)c2)N2C(=O)C(C)SC2=N1` (stereo unspecified), the fold increase in Dox EC50 was 1.21 (inactive) and the EC50 is 6.53 µM.
For `CCCC1S/C(=N/N=C/c2ccc(OC)cc2)N(Cc2ccccc2)C1=O` (stereo unspecified), the fold increase in Dox EC50 was 1 (inactive) and the EC50 came out at 5.39 µM.
For the compound `O=c1oc(-c2cc3ccccc3o2)nc2sc3c(c12)CCCC3`, the fold increase in Dox EC50 was 1.17 (inactive) and the EC50 worked out at 6.32 µM.
Regarding `Oc1c(C(c2ccccc2)N2CCc3ccccc3C2)sc2ncnn12` (stereo unspecified), the fold increase in Dox EC50 was 0.45 (inactive) and the 50% effective concentration (EC50) was 2.42 µM.
For `CCOC(=O)CSc1nc(N)nc(C)c1Br`, in that order: 0.78 (inactive) and 4.2 µM.
Consider `Cc1cccc(C)c1N=Cc1c(O)n(-c2nccs2)c(=O)c2ccccc12`, for which the fold increase in Dox EC50 is 0.6 (inactive) and the EC50 was 3.22 µM.
For `N#Cc1nc(COc2ccc(Br)cc2)oc1NCCN1CCOCC1`, the fold increase in Dox EC50 is 0.83 (inactive) and the EC50 was 4.5 µM.
Take `O=C1/C(=C\c2cccs2)N=C(c2cccs2)N1Nc1ccccc1`: the fold increase in Dox EC50 is 0.84 (inactive) and the EC50 turned out to be 4.55 µM.
Turning to `CCc1nnc(NC(=O)CCC(=O)N2CCN(Cc3ccc(Cl)cc3)CC2)s1`, the fold increase in Dox EC50 was 0.76 (inactive) and the EC50 amounted to 4.09 µM.
Turning to `CC(C(=O)N1c2ccccc2CCc2ccccc21)n1nnc(-c2ccc(N(C)C)cc2)n1` (stereo unspecified), the fold increase in Dox EC50 is 1.06 (inactive) and the concentration for a half-maximal effect (EC50) was 5.7 µM.
Consider `CCOC(=O)CN(C(=O)CSc1nnc(COc2ccc(OC)cc2)n1C)c1ccccc1`, for which the fold increase in Dox EC50 was 0.6 (inactive) and the EC50 came out at 3.26 µM.
For the compound `CCOC(=O)c1ccc(Oc2nc(NC(C)(C)C)nc(N(C)C)n2)cc1`, the fold increase in Dox EC50 was 0.82 (inactive) and the EC50 was 4.43 µM.
